From US9763980B2, “Combined chemical modification of sphingosine-1-phosphate (S1P) and CXCR4 signalling pathways for hematopoietic stem cell (HSC) mobilization and engraftment” (Children's Medical Center Corporation, priority 2011, dated 2017)

Experiments:
peripheral lymphocyte = details: in vivo; cited from earlier work
[1] = test system: CHT hematopoiesis (HSPC markers cmyb and runx1 in the CHT); test: Zebrafish embryo chemical treatment and dose matrices, whole mount in situ hybridization of cmyb/runx1 in the CHT; assay type: in vivo
Protocol: Transgenic zebrafish embryos were intercrossed and selected using epifluorescence (e.g. Runx1+23:EGFP, cmyb:EGFP^4, cd41:EGFP^2, kdrl:DsRed2^31). Live imaging was performed using a spinning disk confocal microscope with an incubated chamber. Zebrafish embryos were mounted and imaged as previously described. Live mouse fetal liver explants were prepared as previously described for aorta-gonad-mesonephros tissue^10. Image processing was done primarily with Fluorender^32 and ImageJ, which included the MTrackJ plugin^33 for manual cell tracking. For chemical screening and dose matrices, stage-matched AB embryos were dechorionated and arrayed 8-10/well in 96-well mesh-bottomed plates (Millipore). Embryos were treated from 48-72 hpf by placement directly in 96-well receiver plates containing small molecules diluted in E3 media+1% DMSO. Embryos were checked for circulation before fixation. Whole mount in situ hybridization was performed as previously described^34, with the addition of 0.2% glutaraldehyde to 4% formaldehyde at the post-fixation step. […] Lineage tracing was performed by injecting cd41:EGFP positive embryos with caged fluorescein conjugated to dextran (MW 10000). Embryos were uncaged in the DA at 28 hpf with a UV laser. Embryos were raised to 46 hpf in E3 media or E3+S1PR1 antagonist W146 (10 μM), then fixed for antibody staining to detect double positive cd41:EGFP and uncaged FITC HSPCs. Receptor fusion cDNAs (25 pg) were injected into one-cell embryos with Tol2 RNA (15 pg). Flow cytometry was performed using a LSR II and cells were sorted using a FACSAria (BD Biosciences). Flow cytometry data was analyzed using FACSDiva and FlowJo software.
Having followed newly born aortic HSPCs to the intermediate tissue, the inventors assessed the signaling pathways involved in embryonic migration. The inventors designed a chemical genetic screen to introduce small molecules to the zebrafish embryo from the peak window of HSPC migration to the CHT (48-72 hpf).

[2] = test system: graft coronary artery disease and graft-versus-host disease (GVHD); details: mouse models for graft coronary artery disease and graft-versus-host disease (GVHD); cited from earlier work
rheumatoid arthritis = details: rat models for rheumatoid arthritis; cited from earlier work
autoimmune uveitis = details: rat model for autoimmune uveitis; cited from earlier work
asthma = details: mouse model for asthma; cited from earlier work
HSC = details: Massberg et al.; cited from earlier work
acute viral myocarditis = details: mouse model for acute viral myocarditis; cited from earlier work
[3] = test system: systemic lupus erythematosus (SLE); details: mouse model for systemic lupus erythematosus (SLE); cited from earlier work
[4] = test system: ischemia-reperfusion injury; details: mouse model for ischemia-reperfusion injury; cited from earlier work
atopic dermatitis = details: mouse model for atopic dermatitis; cited from earlier work
[5] = test system: brain inflammatory reaction following traumatic brain injury (TBI); details: rat model for brain inflammatory reaction following traumatic brain injury (TBI); cited from earlier work
[6] = test system: airway inflammation and induction of bronchial hyperresponsiveness; details: mouse model for airway inflammation and induction of bronchial hyperresponsiveness; cited from earlier work
multiple sclerosis = details: cited from earlier work
atherosclerosis = details: mouse models for atherosclerosis; cited from earlier work
[7] = test system: inflammatory bowel disease including colitis; details: mouse models for inflammatory bowel disease including colitis; cited from earlier work
autoimmune myocarditis = details: rat model for autoimmune myocarditis; cited from earlier work
[8] = clinical trials; due to agonism of the S1P3 receptor; cited from earlier work
[9] = test system: progressive mesangioproliferative glomerulonephritis; details: rat model for progressive mesangioproliferative glomerulonephritis; cited from earlier work
[10] = test system: experimental autoimmune encephalomyelitis (EAE); details: EAE in rats, a model for human multiple sclerosis; cited from earlier work
[11] = Phase II clinical trials, relapsing-remitting multiple sclerosis

For `CCCCCCCCc1ccc(CCC(N)(CO)CO)cc1` [FTY720, 2-amino-2-[2-(4-octylphenyl)ethyl]propane-1,3-diol], the “lymphopenia (peripheral lymphocyte lowering)” value (peripheral lymphocyte) is given as “rapidly and reversibly induce lymphopenia”, the “CHT score (greatest engraftment in dose matrix)” value ([1]; 15 μM AMD3100 and 5 μM FTY720) is given as “+2” and the HSC engraftment ([1]; 3:1 ratio of FTY720:AMD3100) is given as “promote and enhance HSC engraftment”. The “migration of HSC from the bone marrow” value ([1]; 5:1 ratio of FTY720:AMD3100) was “promote migration of HSC”, the “cmyb/runx1 expression in the CHT” value ([1]; FTY720 5 μM alone, treatment from 48 hpf, 72 hpf embryos) was “little effect” and the CHT hematopoiesis ([1]; FTY720 (5μM) combined with AMD3100 (15μM)) was “increase”. The CHT hematopoiesis ([1]; FTY720 with increased AMD3100 dose) was “greatly reduced”, the CHT hematopoiesis ([1]; combination of FTY720 and AMD3100 at specific combined doses (interaction matrix)) was “increased” and the “Experimental data: concentration of S1PR1 modulating agent in the combination effective at increasing HSC engraftment” value ([1]; combination with AMD3100) was 5 µM. The “Experimental data: concentration of S1PR1 modulating agent in the combination effective at increasing HSC mobilization” value ([1]; combination with AMD3100) was 5 μM FTY720, the “mobilization of HSC from the bone marrow in vivo” value ([1]; combination with AMD3100 in specific ratios) was “improves mobilization” and the CHT hematopoiesis ([1]; dose matrices, agent combined with AMD3100) was “synergistic increases”. For the same compound, the CHT hematopoiesis ([1]; each agent alone at the doses of the effective FTY720/AMD3100 combination) was “no effect”, the therapeutic efficacy [2] was “therapeutic efficacy” and the therapeutic efficacy (rheumatoid arthritis) was “therapeutic efficacy”. The therapeutic efficacy (autoimmune uveitis) was “therapeutic efficacy”, the therapeutic efficacy (asthma) was “therapeutic efficacy” and the “HSC egress from tissues” value (HSC) was “blocked”. For the same compound, the therapeutic efficacy (acute viral myocarditis) was “therapeutic efficacy”, the therapeutic efficacy [3] was “therapeutic efficacy” and the therapeutic efficacy [4] was “therapeutic efficacy”. The therapeutic efficacy (atopic dermatitis) was “therapeutic efficacy”, the therapeutic efficacy [5] was “therapeutic efficacy” and the therapeutic efficacy [6] was “therapeutic efficacy”. The clinical disease activity (multiple sclerosis; [11]) was “reduce”, the “number of lesions detected by magnetic resonance imaging (MRI)” value (multiple sclerosis; [11]) was “reduce” and the therapeutic efficacy (multiple sclerosis; multiple sclerosis, clinical trials) was “therapeutic efficacy”. The therapeutic efficacy (atherosclerosis) was “therapeutic efficacy”, the therapeutic efficacy [7] was “therapeutic efficacy” and the therapeutic efficacy (autoimmune myocarditis) was “therapeutic efficacy”. The adverse event [8] was “transient asymptomatic bradycardia”, the therapeutic efficacy [9] was “therapeutic efficacy” and the therapeutic efficacy [10] was “therapeutic efficacy”.
